Measurements as given in patent US10961231B2, “NTCP inhibitors” (National Institute of Biological Sciences, Beijing, priority 2018, dated 2021).
Where two headings read alike, the source gives them in different places.

Target: T1, NTCP (Homo sapiens, UniProt Q14973)
T1 sequence (Q14973 1-349): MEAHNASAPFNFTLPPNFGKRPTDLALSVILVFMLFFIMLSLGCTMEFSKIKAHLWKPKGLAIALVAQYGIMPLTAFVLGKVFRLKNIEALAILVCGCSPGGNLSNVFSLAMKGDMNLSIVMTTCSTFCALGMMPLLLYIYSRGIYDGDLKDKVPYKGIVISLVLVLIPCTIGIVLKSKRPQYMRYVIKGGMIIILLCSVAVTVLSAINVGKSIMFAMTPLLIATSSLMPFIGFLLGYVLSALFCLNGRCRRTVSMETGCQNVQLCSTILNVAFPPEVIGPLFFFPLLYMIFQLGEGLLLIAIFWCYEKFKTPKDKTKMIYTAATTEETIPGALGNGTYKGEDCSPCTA
Test: [3H]-TCA uptake assay (NTCP inhibition)
Assay type: cell-based
Summary of the method: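 PTH and HepG2-NTCP cells kept 24 h in PMM to induce NTCP, then exposed 2 h to test compounds or DMSO. Uptake of 1 μM [3H]-taurocholate in Na+ Ringer's buffer (145 mM Na) ran 15 min at 37° C. Cells washed, lysed in 1% Triton X-100, and radioactivity counted by liquid scintillation.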

[1] = IC50, given as a range, marked * (asterisk not explained)
[2] = given as a range, assay not given
[3] = given as a range, marked * (asterisk not explained)
[4] = IC50, given as a range, assay not given

CCCOc1cccc(OC2CC(C)C(C3C(=O)NC(CC)C(=O)N(C)CC(=O)N(C)C(CC(C)C)C(=O)NC(C(C)C)C(=O)N(C)C(CC(C)C)C(=O)NC(C)C(=O)NC(C)C(=O)N(C)C(CC(C)C)C(=O)N(C)C(CC(C)C)C(=O)N(C)C(C(C)C)C(=O)N3C)O2)c1 (stereo not shown) [Compound 31A-o]
IC50 [1]: 1 to 100 µM

CCC1NC(=O)C(C2OC(Sc3cccc(OCc4ccc5c(c4)OCO5)c3)CC2C)N(C)C(=O)C(C(C)C)N(C)C(=O)C(CC(C)C)N(C)C(=O)C(CC(C)C)N(C)C(=O)C(C)NC(=O)C(C)NC(=O)C(CC(C)C)N(C)C(=O)C(C(C)C)NC(=O)C(CC(C)C)N(C)C(=O)CN(C)C1=O [Compound 18A, [2-((2R,3R)-5-(3-(benzo[d][1,3]dioxol-5-ylmethoxy)phenylthio)-3-methyltetrahydrofuran-2-yl)-2-(methylamino)acetic acid]^1-cyclosporin A]
IC50 [2]: 0.001 to 1 µM

CCCCc1ccc(OC2CC(C)C(C3C(=O)NC(CC)C(=O)N(C)CC(=O)N(C)C(CC(C)C)C(=O)NC(C(C)C)C(=O)N(C)C(CC(C)C)C(=O)NC(C)C(=O)NC(C)C(=O)N(C)C(CC(C)C)C(=O)N(C)C(CC(C)C)C(=O)N(C)C(C(C)C)C(=O)N3C)O2)cc1 (stereo not shown) [Compound 8A-o]
IC50 [1]: 1 to 100 µM

CCC1NC(=O)C(C2OC(Sc3ccc(C4CCCCC4)cc3)CC2C)N(C)C(=O)C(C(C)C)N(C)C(=O)C(CC(C)C)N(C)C(=O)C(CC(C)C)N(C)C(=O)C(C)NC(=O)C(C)NC(=O)C(CC(C)C)N(C)C(=O)C(C(C)C)NC(=O)C(CC(C)C)N(C)C(=O)CN(C)C1=O [Compound 9A, [2-((2R,3R)-5-(4-cyclohexylphenylthio)-3-methyltetrahydrofuran-2-yl)-2-(methylamino)acetic acid]^1-cyclosporin A]
IC50 [2]: 1 to 1000 µM

CCC1NC(=O)C(C2OC(Oc3cc(Cl)cc(OCc4ccc(F)cc4)c3)CC2C)N(C)C(=O)C(C(C)C)N(C)C(=O)C(CC(C)C)N(C)C(=O)C(CC(C)C)N(C)C(=O)C(C)NC(=O)C(C)NC(=O)C(CC(C)C)N(C)C(=O)C(C(C)C)NC(=O)C(CC(C)C)N(C)C(=O)CN(C)C1=O (stereo not shown) [Compound 61A-o]
IC50 [3]: 1 to 100 µM

CCC1NC(=O)C(C2OC(Sc3cccc(NCc4ccccc4)c3)CC2C)N(C)C(=O)C(C(C)C)N(C)C(=O)C(CC(C)C)N(C)C(=O)C(CC(C)C)N(C)C(=O)C(C)NC(=O)C(C)NC(=O)C(CC(C)C)N(C)C(=O)C(C(C)C)NC(=O)C(CC(C)C)N(C)C(=O)CN(C)C1=O [Compound 48A, [2-((2R,3R)-5-(3-(benzylamino)phenylthio)-3-methyltetrahydrofuran-2-yl)-2-(methylamino)acetic acid]^1-cyclosporin A]
IC50 [2]: 0.001 to 1 µM

CCC1NC(=O)C(C2OC(Sc3cc(Cl)cc(OCc4ccc(F)cc4)c3)CC2C)N(C)C(=O)C(C(C)C)N(C)C(=O)C(CC(C)C)N(C)C(=O)C(CC(C)C)N(C)C(=O)C(C)NC(=O)C(C)NC(=O)C(CC(C)C)N(C)C(=O)C(C(C)C)NC(=O)C(CC(C)C)N(C)C(=O)CN(C)C1=O [Compound 61A, [2-((2R,3R)-5-(3-chloro-5-(4-fluorobenzyloxy)phenylthio)-3-methyltetrahydrofuran-2-yl)-2-(methylamino)acetic acid] 1-cyclosporin A]
IC50 (given as a range, assay not given, read-out: IC50): 0.001 to 1 µM

CCC1NC(=O)C(C2OC(Oc3cc(OCCOC)cc(OCc4ccccc4)c3)CC2C)N(C)C(=O)C(C(C)C)N(C)C(=O)C(CC(C)C)N(C)C(=O)C(CC(C)C)N(C)C(=O)C(C)NC(=O)C(C)NC(=O)C(CC(C)C)N(C)C(=O)C(C(C)C)NC(=O)C(CC(C)C)N(C)C(=O)CN(C)C1=O (stereo not shown) [Compound 11-0]
IC50 [3]: 1 to 100 µM

CCC1NC(=O)C(C2OC(SCc3ccc(Cl)cc3Cl)CC2C)N(C)C(=O)C(C(C)C)N(C)C(=O)C(CC(C)C)N(C)C(=O)C(CC(C)C)N(C)C(=O)C(C)NC(=O)C(C)NC(=O)C(CC(C)C)N(C)C(=O)C(C(C)C)NC(=O)C(CC(C)C)N(C)C(=O)CN(C)C1=O (stereo not shown) [Compound 89A-s]
IC50 [1]: 1 to 100 µM

CCC1NC(=O)C(C2OC(Sc3cc(Cl)cc(OCc4ccccc4)c3)CC2C)N(C)C(=O)C(C(C)C)N(C)C(=O)C(CC(C)C)N(C)C(=O)C(CC(C)C)N(C)C(=O)C(C)NC(=O)C(C)NC(=O)C(CC(C)C)N(C)C(=O)C(C(C)C)NC(=O)C(CC(C)C)N(C)C(=O)CN(C)C1=O (stereo not shown) [Compound 63]
IC50 [1]: 1 to 100 µM

CCCN(C)c1cccc(OC2CC(C)C(C3C(=O)NC(CC)C(=O)N(C)CC(=O)N(C)C(CC(C)C)C(=O)NC(C(C)C)C(=O)N(C)C(CC(C)C)C(=O)NC(C)C(=O)NC(C)C(=O)N(C)C(CC(C)C)C(=O)N(C)C(CC(C)C)C(=O)N(C)C(C(C)C)C(=O)N3C)O2)c1 (stereo not shown) [Compound 50A-o]
IC50 [1]: 1 to 100 µM

CCC1NC(=O)C(C2OC(OC(C)c3ccccc3)CC2C)N(C)C(=O)C(C(C)C)N(C)C(=O)C(CC(C)C)N(C)C(=O)C(CC(C)C)N(C)C(=O)C(C)NC(=O)C(C)NC(=O)C(CC(C)C)N(C)C(=O)C(C(C)C)NC(=O)C(CC(C)C)N(C)C(=O)CN(C)C1=O (single isomer, unassigned) [Compound 78A]
IC50 [2]: 0.001 to 1 µM

CCC1NC(=O)C(C2OC(Sc3ccc(CN4CCN(C)CC4)cc3)CC2C)N(C)C(=O)C(C(C)C)N(C)C(=O)C(CC(C)C)N(C)C(=O)C(CC(C)C)N(C)C(=O)C(C)NC(=O)C(C)NC(=O)C(CC(C)C)N(C)C(=O)C(C(C)C)NC(=O)C(CC(C)C)N(C)C(=O)CN(C)C1=O [Compound 7A, [2-((2R,3R)-3-methyl-5-(4-((4-methylpiperazin-1-yl)methyl)phenylthio)tetrahydrofuran-2-yl)-2-(methylamino)acetic acid]^1-cyclosporin A]
IC50 [4]: 1 to 10 µM

CCC1NC(=O)C(C2OC(Sc3ccc(OS(C)(=O)=O)cc3)CC2C)N(C)C(=O)C(C(C)C)N(C)C(=O)C(CC(C)C)N(C)C(=O)C(CC(C)C)N(C)C(=O)C(C)NC(=O)C(C)NC(=O)C(CC(C)C)N(C)C(=O)C(C(C)C)NC(=O)C(CC(C)C)N(C)C(=O)CN(C)C1=O [Compound 5A, [2-((2R,3R)-3-methyl-5-(4-(methylsulfonyloxy)phenylthio)tetrahydrofuran-2-yl)-2-(methylamino)acetic acid]^1-cyclosporin A]
IC50 [4]: 1 to 10 µM

CCC1NC(=O)C(C2OC(OCc3ccc(Cl)cc3Cl)CC2C)N(C)C(=O)C(C(C)C)N(C)C(=O)C(CC(C)C)N(C)C(=O)C(CC(C)C)N(C)C(=O)C(C)NC(=O)C(C)NC(=O)C(CC(C)C)N(C)C(=O)C(C(C)C)NC(=O)C(CC(C)C)N(C)C(=O)CN(C)C1=O (single isomer, unassigned) [Compound 89A]
IC50 [2]: 0.001 to 1 µM

CCC1NC(=O)C(C2OC(Oc3cccc(OCc4cccs4)c3)CC2C)N(C)C(=O)C(C(C)C)N(C)C(=O)C(CC(C)C)N(C)C(=O)C(CC(C)C)N(C)C(=O)C(C)NC(=O)C(C)NC(=O)C(CC(C)C)N(C)C(=O)C(C(C)C)NC(=O)C(CC(C)C)N(C)C(=O)CN(C)C1=O (stereo not shown) [Compound 69-o]
IC50 [1]: 1 to 100 µM
